# Measurements from the supplement of paper PMC10307832.
# Key:
# Experiment in all cases: relative viability (nuclei count vs DMSO), 5 days (fraction); higher = more cells survive
# Tosedostat = compound: CC(C)C[C@@H](C(=O)N[C@H](C(=O)OC1CCCC1)c1ccccc1)[C@H](O)C(=O)NO [Tosedostat]
# Procedure, shortened: (§1)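 Only plates meeting two conditions passed: control CV below 25% and at least one doubling. Lung cancer cell lines, kept overnight at 37 °C in 1536-well plates, were pinned with five library-drug doses (not always all listed) √10 apart on vehicle-anchored plates and grown 5 days without medium change. A one-step fix, permeabilisation and Hoechst stain preceded 4× imaging and MetaXpress nuclear counting. Viability equals treated-well nuclei divided by vehicle-well nuclei, as the median over plates.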
# [1] = compound: CC1=NN=C(O1)C2=NN=C(C=C2)N3CCC(CC3)OC4=C(C=CC(=C4)F)Cl
# Procedure, shortened: as §1
# Tosedostat + Trametinib = compound: CC(C)C[C@@H](C(=O)N[C@H](C(=O)OC1CCCC1)c1ccccc1)[C@H](O)C(=O)NO [Tosedostat] + CC(=O)Nc1cccc(-n2c(=O)n(C3CC3)c(=O)c3c(Nc4ccc(I)cc4F)n(C)c(=O)c(C)c32)c1 [Trametinib] (partner 0.02 µM)
# Procedure, shortened: (§2)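 Lung cancer cell lines were pin-tool dosed in 1536-well plates on the day after seeding, with either a lone drug or a fixed anchor-drug dose plus five library-drug doses (not always all listed) in √10 steps. Nuclei were counted on 4× images after 5 days. Relative viability is the ratio of treated-well to vehicle-well nuclei counts, with each value a median of duplicate plates.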
# [2] = compound: CC1=NN=C(O1)C2=NN=C(C=C2)N3CCC(CC3)OC4=C(C=CC(=C4)F)Cl + CC1(C)CCC(c2ccc(Cl)cc2)=C(CN2CCN(c3ccc(C(=O)NS(=O)(=O)c4ccc(N[C@H](CCN5CCOCC5)CSc5ccccc5)c(S(=O)(=O)C(F)(F)F)c4)cc3)CC2)C1 [Navitoclax] (partner 0.5 µM)
# Procedure, shortened: as §2
Cell Line,relative viability (Tosedostat; 0.02 µM),relative viability (Tosedostat; 0.06325 µM),relative viability (Tosedostat; 0.2 µM),relative viability (Tosedostat; 0.6325 µM),relative viability (Tosedostat; 2 µM),relative viability ([1]; 0.253 µM),relative viability ([1]; 0.8 µM),relative viability ([1]; 2.53 µM),relative viability ([1]; 8 µM),relative viability (Tosedostat + Trametinib; first compound 0.06325 µM),relative viability (Tosedostat + Trametinib; first compound 0.2 µM),relative viability (Tosedostat + Trametinib; first compound 0.6325 µM),relative viability (Tosedostat + Trametinib; first compound 2 µM),relative viability ([2]; first compound 0.253 µM),relative viability ([2]; first compound 0.8 µM),relative viability ([2]; first compound 2.53 µM),relative viability ([2]; first compound 8 µM),relative viability (Tosedostat + Trametinib; first compound 0.02 µM)
NCI-H2085,0.918,1.02,0.983,1.02,0.99,0.901,0.736,0.908,0.795,0.436,0.677,0.403,0.637,0.9,0.919,0.908,0.698,–
NCI-H1944,1.01,0.921,0.928,0.889,0.853,0.429,0.487,0.515,0.466,0.396,0.4,0.395,0.422,0.637,0.665,0.733,0.672,0.422
LXF-289,1.08,0.987,0.992,0.993,1.05,0.712,0.616,0.737,0.653,0.651,0.661,0.703,0.687,0.714,0.7,0.673,0.618,0.744
NCI-H596,1.03,1.08,1.12,1.01,0.967,0.982,0.806,1.06,0.813,0.848,0.861,0.901,0.803,–,0.756,0.894,0.723,0.842
NCI-H441,1.12,0.92,0.749,0.69,0.731,0.672,0.388,0.595,0.519,0.579,0.499,0.562,0.461,0.536,0.654,0.544,0.472,0.478
NCI-H2126,0.976,1.01,1.01,0.903,0.865,0.832,0.869,0.928,0.864,0.59,0.568,0.584,0.481,0.785,0.759,0.747,0.645,0.493
HCC-15,1.05,0.89,0.996,0.901,0.848,0.463,0.449,0.456,0.464,0.353,0.408,0.363,0.305,0.477,0.445,0.455,0.491,0.394
HCC-44,1.09,1.01,0.982,0.905,0.628,0.492,0.542,0.509,0.517,1.11,1.09,1.13,1.17,0.424,0.476,0.477,0.447,1.21
COR-L23,1.13,1,0.965,1.01,1.06,0.826,0.891,0.797,0.655,0.594,0.587,0.491,0.508,0.815,0.729,0.789,0.629,0.698
HCC-78,0.938,1.04,1,1.04,0.958,0.659,0.615,0.578,0.551,0.722,0.664,0.795,0.659,0.436,0.43,0.544,0.525,0.729
NCI-H1437,1,0.987,1.05,0.97,0.889,0.741,0.642,0.707,0.632,0.523,0.631,0.469,0.547,0.571,0.66,0.564,0.46,0.552
SK-LU-1,1.1,1.09,0.92,0.938,0.854,0.935,0.783,0.943,0.722,0.529,0.597,0.447,0.511,0.765,0.957,0.706,0.531,0.648
NCI-H2347,1.01,1.05,1.05,0.927,0.833,0.883,0.771,0.893,0.783,0.295,0.33,0.262,0.321,0.643,0.533,0.62,0.532,0.297
BEN,1.01,1.03,1.09,1.3,1.2,0.895,0.959,0.974,0.821,1,1.09,1.21,1.38,0.0638,0.0498,0.058,0.141,1.17
EKVX,0.973,0.972,0.944,0.859,0.911,0.475,0.405,0.432,0.479,0.338,0.433,0.373,0.292,0.451,0.368,0.429,0.423,0.229
PC-3 [JPC-3],1.08,1.13,1.04,0.933,0.641,0.85,0.805,0.896,0.926,0.629,0.733,0.614,0.514,0.764,0.691,0.796,0.722,0.752
NCI-H23,1.14,0.907,0.899,0.744,0.541,0.919,0.532,0.835,0.815,0.329,0.359,0.321,0.284,0.808,–,0.71,0.722,0.426

Cell Line,relative viability (Tosedostat; 0.02 µM),relative viability (Tosedostat; 0.06325 µM),relative viability (Tosedostat; 0.2 µM),relative viability (Tosedostat; 0.6325 µM),relative viability (Tosedostat; 2 µM),relative viability ([1]; 0.253 µM),relative viability ([1]; 0.8 µM),relative viability ([1]; 2.53 µM),relative viability ([1]; 8 µM),relative viability (Tosedostat + Trametinib; first compound 0.06325 µM),relative viability (Tosedostat + Trametinib; first compound 0.2 µM),relative viability (Tosedostat + Trametinib; first compound 0.6325 µM),relative viability (Tosedostat + Trametinib; first compound 2 µM),relative viability ([2]; first compound 0.253 µM),relative viability ([2]; first compound 0.8 µM),relative viability ([2]; first compound 2.53 µM),relative viability ([2]; first compound 8 µM),relative viability (Tosedostat + Trametinib; first compound 0.02 µM)
NCI-H1793,0.815,0.88,0.92,0.913,0.79,0.877,0.776,1.02,0.755,0.49,0.445,0.437,0.448,0.45,0.397,0.371,0.282,0.507
LC-2-ad,1.13,1.02,0.963,0.871,0.818,0.407,0.431,0.44,0.409,0.893,0.885,0.917,0.967,0.318,0.242,0.307,0.218,0.971
COR-L 105,1.03,0.906,0.81,0.784,0.697,0.902,0.956,0.989,1.07,0.431,0.422,0.476,0.369,0.686,0.846,0.622,0.727,0.493
H3255,0.994,0.869,0.94,0.852,0.886,0.662,0.688,0.635,0.727,0.582,0.528,0.608,0.599,0.494,0.422,0.524,0.39,0.61
NCI-H2087,1.21,1.06,1.11,0.819,0.942,0.771,0.569,0.659,0.621,0.17,0.172,0.228,0.132,0.701,0.713,0.724,0.63,0.181
NCI-H1915,1.15,0.949,0.998,0.988,0.891,0.607,0.341,0.497,0.407,0.313,0.292,0.3,0.283,0.372,0.281,0.348,0.277,0.295
HOP-62,1.12,0.977,0.932,0.945,0.9,0.77,0.529,0.707,0.587,0.442,0.404,0.495,0.451,0.834,0.542,0.816,0.863,0.41
LU99A,1.04,1.11,0.99,0.857,0.813,1.05,0.783,0.721,0.758,0.47,0.567,0.544,0.47,0.836,0.723,0.858,0.582,0.51
ChaGo-K-1,1.07,0.975,0.969,1.02,0.771,0.736,0.681,0.687,0.671,0.862,0.895,0.867,0.645,0.678,0.624,0.632,0.622,0.903
NCI-H3122,1.06,1.01,1.03,1.02,1.02,0.47,0.444,0.478,0.432,0.258,0.193,0.25,0.183,0.564,0.612,0.691,0.46,0.201
NCI-H1651,1.06,0.984,0.973,0.921,0.899,0.819,0.795,0.784,0.682,0.789,0.897,0.869,0.742,0.809,0.783,0.782,0.717,0.777
NCI-H1755,1,0.999,1.05,1,0.971,0.661,0.746,0.759,0.731,0.837,0.813,0.869,0.744,0.615,0.682,0.676,0.655,0.782
NCI-H1734,1.1,0.903,0.959,0.866,0.822,0.954,0.729,0.966,0.859,0.666,0.664,0.502,0.572,0.826,0.682,0.843,0.754,0.778
NCI-H1993,1,0.958,0.847,0.631,0.703,0.772,0.864,0.954,0.833,0.61,0.535,0.498,0.504,0.804,0.824,0.876,0.878,0.501
RERF-LC-KJ,0.953,1.03,0.944,0.888,0.876,0.653,0.628,0.652,0.647,0.784,0.81,0.782,0.686,0.781,–,0.671,0.765,0.878
HARA,1.15,0.977,0.922,0.887,0.774,0.484,0.387,0.538,0.355,0.636,0.91,0.745,0.631,0.451,0.392,0.393,0.352,0.85
NCI-H838,0.965,0.957,0.951,1.01,1.11,0.885,0.752,0.886,0.78,0.446,0.52,0.596,0.59,0.959,0.954,1.05,0.979,0.559
